From ChEMBL document CHEMBL5131549, “Discovery of a High Affinity Adenosine A1/A3 Receptor Antagonist with a Novel 7-Amino-pyrazolo[3,4-d]pyridazine Scaffold” (ACS Med Chem Lett, 2022)

Assays:
[1] = Cytotoxicity against human WI-38 cells assessed as cell viability incubated for 72 to 96 hrs by MTT assay; format: toxicity, cell-based
PC-3 = test: cells; conditions: Homo sapiens
HCT-116 = test: cells; conditions: Homo sapiens

Structure (SMILES) | IC50 [1] [µM] | IC50 (PC-3) [µM] | IC50 (HCT-116) [µM]
O=C(Cc1ccccc1)Nc1nc2ccc(Cl)cc2c2nc(-c3ccco3)nn12 | > 10 | – | –
CCNC(=O)[C@H]1O[C@@H](n2cnc3c(N)ncnc32)[C@H](O)[C@@H]1O [NECA] | > 10 | > 10 | > 10
